Common to all, as to format: functional
In test [1] the test system is Mycobacterium tuberculosis. Put plainly: Antitubercular activity against Mycobacterium tuberculosis H37Rv at 6.25 ug/mL relative to control.
The test system of test [2] is Mycobacterium tuberculosis. Nature of the test: Antitubercular activity against Mycobacterium tuberculosis H37Rv.
Test [3] relates to Mycobacterium tuberculosis. Nature of the test: Antitubercular activity against Mycobacterium tuberculosis.

Each structure is given as a SMILES string. In brackets after ≈: the same amount, converted by molar mass. Bounds are passed on as bounds.

What is called inhibition is the share of the control response that was lost under treatment. Low values mean a weak effect, high ones a strong effect. By MIC is commonly meant the lowest concentration that inhibits growth of the organism. A high value points to a less susceptible organism.

For `CC1=C(C(=O)Nc2ccccc2F)C(c2ccc([N+](=O)[O-])cc2)NC(=O)N1` (centres undefined), in test [1], the inhibition at 6.25 µg/mL worked out at 4%. Also, the MIC in test [2] was > 6.25 µg/mL. As for `CC1=C(C(=O)Nc2ccc(C)c(C)c2)C(c2ccc([N+](=O)[O-])cc2)NC(=O)N1` (centres undefined), in test [1], the inhibition at 6.25 µg/mL came out at 13%. Further, in test [2], the MIC was > 6.25 µg/mL. Take `CC1=C(C(=O)Nc2ccc(F)c(Cl)c2)C(c2cccc([N+](=O)[O-])c2)NC(=O)N1` (centres undefined): 6.25 µg/mL produced 29% inhibition in test [1]. The MIC in test [2] was > 6.25 µg/mL. `CC1=C(C(=O)Nc2ccccc2F)C(c2cccc([N+](=O)[O-])c2)NC(=O)N1` (centres undefined): in test [1], the inhibition at 6.25 µg/mL came to 24%. Moreover, the MIC in test [2] is > 6.25 µg/mL. In test [1], `CC1=C(C(=O)Nc2ccc(F)cc2)C(c2cccc(Cl)c2)NC(=O)N1` (centres undefined) came in with an inhibition at 6.25 µg/mL of 38%. Further, the MIC in test [2] is > 6.25 µg/mL.

In the case of `CC1=C(C(=O)Nc2ccccc2Cl)C(c2ccccc2[N+](=O)[O-])NC(=O)N1` (centres undefined), the inhibition at 6.25 µg/mL in test [1] was 11%. Besides, the minimal inhibitory concentration (MIC) in test [2] was > 6.25 µg/mL. As to `CC1=C(C(=O)Nc2cc(C)ccc2C)C(c2cccc(Oc3ccccc3)c2)NC(=O)N1` (centres undefined), in test [1], the inhibition at 6.25 µg/mL came out at 27%. Moreover, the MIC in test [2] was > 6.25 µg/mL. Take `CC1=C(C(=O)Nc2cccc(C)c2C)C(c2cccc(Oc3ccccc3)c2)NC(=O)N1` (centres undefined): at 6.25 µg/mL the inhibition in test [1] was 65%. Further, the minimum inhibitory concentration (MIC) in test [2] was > 6.25 µg/mL. For `CC1=C(C(=O)Nc2ccccc2Cl)C(c2ccc(Cl)cc2)NC(=O)N1` (centres undefined), in that order: 26% and > 6.25 µg/mL. On to `CC1=C(C(=O)Nc2ccccc2)C(c2ccc([N+](=O)[O-])cc2)NC(=O)N1` (centres undefined), for which the inhibition at 6.25 µg/mL in test [1] was 25%. In addition, the MIC in test [2] was > 6.25 µg/mL. In turn, `CC1=C(C(=O)Nc2ccc(Cl)cc2)C(c2cccc([N+](=O)[O-])c2)NC(=O)N1` (centres undefined) showed an inhibition at 6.25 µg/mL in test [1] of 29%. In addition, the MIC in test [2] is > 6.25 µg/mL. Compound `CC1=C(C(=O)Nc2ccc(F)cc2)C(c2cccc([N+](=O)[O-])c2)NC(=O)N1` (centres undefined) displayed an inhibition at 6.25 µg/mL in test [1] of 30%. For the same compound, in test [2], the MIC was > 6.25 µg/mL. Regarding `CC1=C(C(=O)Nc2ccccc2C)C(c2cccc([N+](=O)[O-])c2)NC(=O)N1` (centres undefined), the inhibition at 6.25 µg/mL in test [1] was 6%. In test [2], the minimal inhibitory concentration (MIC) was > 6.25 µg/mL. With `CC1=C(C(=O)Nc2ccc(C)c(C)c2)C(c2cccc(Oc3ccccc3)c2)NC(=O)N1` (centres undefined), the inhibition at 6.25 µg/mL in test [1] was found to be 32%. In addition, in test [2], the MIC is > 6.25 µg/mL. `CC1=C(C(=O)Nc2cc(C)ccc2C)C(c2ccc([N+](=O)[O-])cc2)NC(=O)N1` (centres undefined) yielded an inhibition at 6.25 µg/mL in test [1] of 4%. The MIC in test [2] was > 6.25 µg/mL. In test [1], `CC1=C(C(=O)Nc2cc(C)ccc2C)C(c2ccc(Cl)cc2)NC(=O)N1` (centres undefined) displayed an inhibition at 6.25 µg/mL of 6%. Also, the MIC in test [2] is > 6.25 µg/mL. Take `CC1=C(C(=O)Nc2ccccc2F)C(c2ccc(O)cc2)NC(=O)N1` (centres undefined): the inhibition at 6.25 µg/mL in test [1] is 18%. In addition, in test [2], the minimal inhibitory concentration (MIC) is > 6.25 µg/mL. The compound `CC1=C(C(=O)Nc2ccc(C)cc2C)C(c2ccc(O)cc2)NC(=O)N1` (centres undefined) came in with an inhibition at 6.25 µg/mL in test [1] of 12%. Further, the MIC in test [2] is > 6.25 µg/mL.

Take `CC1=C(C(=O)Nc2cccc([N+](=O)[O-])c2)C(c2ccc(O)cc2)NC(=O)N1` (centres undefined): the inhibition at 6.25 µg/mL in test [1] came out at 2%. In addition, in test [2], the MIC is > 6.25 µg/mL. Regarding `CC1=C(C(=O)Nc2ccc(F)c(Cl)c2)C(c2ccc([N+](=O)[O-])cc2)NC(=O)N1` (centres undefined), in test [1], the inhibition at 6.25 µg/mL came to 22%. Moreover, the MIC in test [2] was > 6.25 µg/mL. The compound `CC1=C(C(=O)Nc2ccccc2Cl)C(c2cccc([N+](=O)[O-])c2)NC(=O)N1` (centres undefined) returned an inhibition at 6.25 µg/mL in test [1] of 26%. Further, in test [2], the MIC was > 6.25 µg/mL.

In test [1], `CC1=C(C(=O)Nc2ccc(F)c(Cl)c2)C(c2cccc(Cl)c2)NC(=O)N1` (centres undefined) came in with an inhibition at 6.25 µg/mL of 48%. For the same compound, in test [2], the minimum inhibitory concentration (MIC) was > 6.25 µg/mL.

As to `CC1=C(C(=O)Nc2ccc(C)cc2C)C(c2ccc([N+](=O)[O-])cc2)NC(=O)N1` (centres undefined), the inhibition at 6.25 µg/mL in test [1] came out at 12%. In addition, in test [2], the MIC is > 6.25 µg/mL. With `CC1=C(C(=O)Nc2ccc(C)cc2)C(c2cccc([N+](=O)[O-])c2)NC(=O)N1` (centres undefined), the inhibition at 6.25 µg/mL in test [1] was 28%. In addition, the MIC in test [2] is > 6.25 µg/mL. For `CC1=C(C(=O)Nc2ccc(Cl)cc2)C(c2ccc([N+](=O)[O-])cc2)NC(=O)N1` (centres undefined), the inhibition at 6.25 µg/mL in test [1] worked out at 9%. The MIC in test [2] was > 6.25 µg/mL.

In turn, `CC1=C(C(=O)Nc2cc(Cl)ccc2Cl)C(c2ccc([N+](=O)[O-])cc2)NC(=O)N1` (centres undefined) came in with an inhibition at 6.25 µg/mL in test [1] of 18%. Moreover, the MIC in test [2] is > 6.25 µg/mL. For `CC1=C(C(=O)Nc2ccc(C)c(C)c2)C(c2cccc([N+](=O)[O-])c2)NC(=O)N1` (centres undefined), testing at 6.25 µg/mL in test [1] gave an inhibition of 63%. Besides, in test [2], the MIC is > 6.25 µg/mL. As to `COc1ccc(NC(=O)C2=C(C)NC(=O)NC2c2ccc([N+](=O)[O-])cc2)cc1` (centres undefined), the inhibition at 6.25 µg/mL in test [1] turned out to be 21%. Besides, the MIC in test [2] is > 6.25 µg/mL.

`COc1ccc(C2NC(=O)NC(C)=C2C(=O)Nc2cc(C)ccc2C)cc1` (centres undefined) registered an inhibition at 6.25 µg/mL in test [1] of 2%. For the same compound, in test [2], the minimum inhibitory concentration (MIC) is > 6.25 µg/mL. Take `CCCc1cc(=O)oc2c3c(c4c(c12)OC(C)(C)C=C4)O[C@H](C)[C@@H](C)[C@@H]3O` [CALANOLIDE A]: in test [3], inhibition of growth (MIC) required 3.13 µg/mL (≈ 8.45 µM).

The record behind these values is ChEMBL document CHEMBL1140195, “Synthesis, screening for antitubercular activity and 3D-QSAR studies of substituted N-phenyl-6-methyl-2-oxo-4-phenyl-1,2,3,4-tetrahydro-pyrimidine-5-carboxamides” (2008).
